The nature of data set [1]: in vivo. The note with it: rat, iv, 1 mg/kg.
Description: Mean residence time in rat at 1 mg/kg, iv
Data set [2] is described as follows: in vivo. Particulars: rat, iv, 1 mg/kg. This is another data set of the same source.
Description: Volume of distribution at steady state in rat at 1 mg/kg, iv
Data set [3] is described as follows: in vivo. Particulars: rat, iv, 1 mg/kg. The source holds these as a separate data set.
Description: Clearance in rat at 1 mg/kg, iv
A further data set in a line: in vitro. Particulars: rat, liver microsomes.
Data set [4] can be described thus: in vivo. Particulars: rat, plasma, po, 2 mg/kg.
The target of data set [5] is Phosphatidylinositol 4,5-bisphosphate 3-kinase catalytic subunit gamma isoform (Homo sapiens, UniProt P48736). Description: biochemical.
Chain of Phosphatidylinositol 4,5-bisphosphate 3-kinase catalytic subunit gamma isoform (P48736 whole entry, canonical isoform): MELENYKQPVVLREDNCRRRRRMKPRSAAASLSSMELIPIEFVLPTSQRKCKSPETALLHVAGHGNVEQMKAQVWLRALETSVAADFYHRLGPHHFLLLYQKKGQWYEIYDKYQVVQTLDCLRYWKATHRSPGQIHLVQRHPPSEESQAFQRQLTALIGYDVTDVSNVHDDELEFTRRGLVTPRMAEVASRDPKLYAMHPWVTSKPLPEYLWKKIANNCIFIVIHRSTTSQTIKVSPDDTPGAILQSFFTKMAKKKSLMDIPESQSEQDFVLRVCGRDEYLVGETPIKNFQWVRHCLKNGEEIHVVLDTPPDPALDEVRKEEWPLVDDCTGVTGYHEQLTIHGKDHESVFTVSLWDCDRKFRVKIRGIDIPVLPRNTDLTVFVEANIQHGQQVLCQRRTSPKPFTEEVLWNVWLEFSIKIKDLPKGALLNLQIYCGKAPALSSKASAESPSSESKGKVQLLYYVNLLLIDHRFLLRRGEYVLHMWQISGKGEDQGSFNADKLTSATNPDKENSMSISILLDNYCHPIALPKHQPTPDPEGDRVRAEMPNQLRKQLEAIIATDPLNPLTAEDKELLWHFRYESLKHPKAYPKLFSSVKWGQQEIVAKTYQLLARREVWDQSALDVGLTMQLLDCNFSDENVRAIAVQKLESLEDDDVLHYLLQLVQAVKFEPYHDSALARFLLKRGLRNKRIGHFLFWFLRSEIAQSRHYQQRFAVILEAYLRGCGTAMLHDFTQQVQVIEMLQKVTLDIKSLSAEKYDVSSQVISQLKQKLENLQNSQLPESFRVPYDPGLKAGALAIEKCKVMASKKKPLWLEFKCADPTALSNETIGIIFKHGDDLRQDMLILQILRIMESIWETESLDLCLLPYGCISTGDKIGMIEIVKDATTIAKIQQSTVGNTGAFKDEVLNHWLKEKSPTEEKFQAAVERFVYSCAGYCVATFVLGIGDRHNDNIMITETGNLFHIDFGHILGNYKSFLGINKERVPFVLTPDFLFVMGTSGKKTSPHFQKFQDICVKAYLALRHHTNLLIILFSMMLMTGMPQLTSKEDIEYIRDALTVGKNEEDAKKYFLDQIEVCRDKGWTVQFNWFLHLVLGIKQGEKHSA
Description: Inhibition of human N-terminal poly-His tagged-PI3Kgamma expressed in Sf9 baculovirus system co-expressing p85alpha after 20 mins by AlphaScreen assay
The target in data set [6] is T1, Phosphatidylinositol 4,5-bisphosphate 3-kinase catalytic subunit delta isoform (Homo sapiens, UniProt O00329).
T1 sequence (O00329 whole entry): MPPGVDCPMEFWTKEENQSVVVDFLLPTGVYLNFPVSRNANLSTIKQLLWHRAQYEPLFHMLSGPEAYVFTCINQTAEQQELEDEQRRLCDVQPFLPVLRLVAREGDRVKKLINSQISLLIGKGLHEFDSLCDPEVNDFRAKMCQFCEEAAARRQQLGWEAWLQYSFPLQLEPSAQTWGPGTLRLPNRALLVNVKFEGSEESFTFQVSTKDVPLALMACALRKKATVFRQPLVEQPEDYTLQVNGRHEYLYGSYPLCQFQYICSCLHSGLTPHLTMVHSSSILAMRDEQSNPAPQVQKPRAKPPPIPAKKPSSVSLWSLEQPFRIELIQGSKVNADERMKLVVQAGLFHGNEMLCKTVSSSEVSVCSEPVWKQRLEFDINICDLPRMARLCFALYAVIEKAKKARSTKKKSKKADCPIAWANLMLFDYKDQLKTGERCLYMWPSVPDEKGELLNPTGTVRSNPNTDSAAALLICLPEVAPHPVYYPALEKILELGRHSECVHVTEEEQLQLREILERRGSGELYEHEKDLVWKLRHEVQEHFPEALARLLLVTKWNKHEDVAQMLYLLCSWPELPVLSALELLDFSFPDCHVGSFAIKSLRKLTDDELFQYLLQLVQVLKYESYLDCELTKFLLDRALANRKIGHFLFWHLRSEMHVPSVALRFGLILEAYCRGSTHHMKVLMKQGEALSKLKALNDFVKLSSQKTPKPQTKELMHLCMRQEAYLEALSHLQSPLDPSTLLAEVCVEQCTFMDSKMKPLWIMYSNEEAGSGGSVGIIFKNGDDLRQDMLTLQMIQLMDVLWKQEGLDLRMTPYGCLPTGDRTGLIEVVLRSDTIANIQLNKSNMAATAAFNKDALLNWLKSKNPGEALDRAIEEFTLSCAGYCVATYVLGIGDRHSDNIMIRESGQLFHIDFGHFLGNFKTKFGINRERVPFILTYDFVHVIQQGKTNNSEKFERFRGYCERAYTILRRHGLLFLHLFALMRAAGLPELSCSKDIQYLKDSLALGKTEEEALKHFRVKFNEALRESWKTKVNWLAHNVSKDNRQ
As to the kind of experiment: biochemical.
Description: Inhibition of human N-terminal poly-His tagged-PI3Kdelta expressed in Sf9 baculovirus system co-expressing p85alpha after 20 mins by AlphaScreen assay

A short description of data set [7]: Oral bioavailability in rat at 2 mg/kg. Format: ADME, organism-based. Particulars: in vivo.
Data set [8] deals with Phosphatidylinositol 3-kinase catalytic subunit type 3 (Homo sapiens, UniProt Q8NEB9).
Chain of Phosphatidylinositol 3-kinase catalytic subunit type 3 (Q8NEB9 whole entry, canonical isoform): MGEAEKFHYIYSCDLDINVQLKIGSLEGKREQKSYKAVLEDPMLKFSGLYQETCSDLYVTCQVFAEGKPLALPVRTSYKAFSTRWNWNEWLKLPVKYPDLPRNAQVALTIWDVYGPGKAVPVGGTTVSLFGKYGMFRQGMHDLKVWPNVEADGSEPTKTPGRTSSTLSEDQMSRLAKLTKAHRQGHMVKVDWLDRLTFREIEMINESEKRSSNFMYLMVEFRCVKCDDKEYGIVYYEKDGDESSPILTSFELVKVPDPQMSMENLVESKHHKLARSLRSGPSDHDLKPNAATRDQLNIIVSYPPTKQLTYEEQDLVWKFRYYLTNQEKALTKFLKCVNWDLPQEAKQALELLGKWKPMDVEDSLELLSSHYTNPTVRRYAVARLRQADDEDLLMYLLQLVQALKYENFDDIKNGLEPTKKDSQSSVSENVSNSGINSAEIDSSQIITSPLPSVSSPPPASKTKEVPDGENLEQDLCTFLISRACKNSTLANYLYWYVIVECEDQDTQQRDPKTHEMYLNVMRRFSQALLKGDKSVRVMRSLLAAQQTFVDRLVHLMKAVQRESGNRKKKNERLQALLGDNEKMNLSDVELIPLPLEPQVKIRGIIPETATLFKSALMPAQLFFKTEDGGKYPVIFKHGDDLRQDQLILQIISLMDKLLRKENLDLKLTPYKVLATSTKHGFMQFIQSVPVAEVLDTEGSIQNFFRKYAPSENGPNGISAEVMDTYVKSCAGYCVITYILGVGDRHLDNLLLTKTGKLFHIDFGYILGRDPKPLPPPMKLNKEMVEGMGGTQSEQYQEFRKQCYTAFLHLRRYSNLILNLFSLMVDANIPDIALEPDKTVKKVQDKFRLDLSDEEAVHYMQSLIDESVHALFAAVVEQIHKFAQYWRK
Description: Inhibition of human VPS34 after 30 mins by fluorescence-based immunoassay
Data set [9] addresses Phosphatidylinositol 4,5-bisphosphate 3-kinase catalytic subunit beta isoform (Homo sapiens, UniProt P42338). Description: biochemical.
Description: Inhibition of human N-terminal poly-His tagged-PI3Kbeta expressed in Sf9 baculovirus system co-expressing p85alpha after 20 mins by AlphaScreen assay
The target in data set [10] is Serine/threonine-protein kinase B-raf (Homo sapiens, UniProt P15056, V600E).
Chain of Serine/threonine-protein kinase B-raf (P15056 2-766 V600E limits assumed): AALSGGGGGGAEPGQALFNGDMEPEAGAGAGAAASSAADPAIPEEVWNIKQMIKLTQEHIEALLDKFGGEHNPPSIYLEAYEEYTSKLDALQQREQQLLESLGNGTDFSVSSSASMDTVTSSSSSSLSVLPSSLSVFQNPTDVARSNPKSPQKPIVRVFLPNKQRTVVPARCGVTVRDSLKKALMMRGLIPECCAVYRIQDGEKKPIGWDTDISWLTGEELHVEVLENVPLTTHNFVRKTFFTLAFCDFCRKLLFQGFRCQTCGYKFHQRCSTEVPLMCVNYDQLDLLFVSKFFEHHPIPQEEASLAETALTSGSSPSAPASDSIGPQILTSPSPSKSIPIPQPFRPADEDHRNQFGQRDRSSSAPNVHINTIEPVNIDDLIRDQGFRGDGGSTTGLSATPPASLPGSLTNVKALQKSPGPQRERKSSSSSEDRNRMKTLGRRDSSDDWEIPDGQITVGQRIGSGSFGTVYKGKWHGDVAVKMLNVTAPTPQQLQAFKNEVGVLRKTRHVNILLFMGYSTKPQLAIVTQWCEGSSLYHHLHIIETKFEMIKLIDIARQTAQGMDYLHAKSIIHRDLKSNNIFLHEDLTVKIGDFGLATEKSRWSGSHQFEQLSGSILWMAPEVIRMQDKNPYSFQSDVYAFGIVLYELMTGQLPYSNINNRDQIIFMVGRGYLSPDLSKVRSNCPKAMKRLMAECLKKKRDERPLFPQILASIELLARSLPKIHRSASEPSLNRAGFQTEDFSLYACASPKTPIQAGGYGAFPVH
For data set [11], the target named is Phosphatidylinositol 4,5-bisphosphate 3-kinase catalytic subunit alpha isoform (Homo sapiens, UniProt P42336). Description: biochemical.
Chain of Phosphatidylinositol 4,5-bisphosphate 3-kinase catalytic subunit alpha isoform (P42336 whole entry, canonical isoform): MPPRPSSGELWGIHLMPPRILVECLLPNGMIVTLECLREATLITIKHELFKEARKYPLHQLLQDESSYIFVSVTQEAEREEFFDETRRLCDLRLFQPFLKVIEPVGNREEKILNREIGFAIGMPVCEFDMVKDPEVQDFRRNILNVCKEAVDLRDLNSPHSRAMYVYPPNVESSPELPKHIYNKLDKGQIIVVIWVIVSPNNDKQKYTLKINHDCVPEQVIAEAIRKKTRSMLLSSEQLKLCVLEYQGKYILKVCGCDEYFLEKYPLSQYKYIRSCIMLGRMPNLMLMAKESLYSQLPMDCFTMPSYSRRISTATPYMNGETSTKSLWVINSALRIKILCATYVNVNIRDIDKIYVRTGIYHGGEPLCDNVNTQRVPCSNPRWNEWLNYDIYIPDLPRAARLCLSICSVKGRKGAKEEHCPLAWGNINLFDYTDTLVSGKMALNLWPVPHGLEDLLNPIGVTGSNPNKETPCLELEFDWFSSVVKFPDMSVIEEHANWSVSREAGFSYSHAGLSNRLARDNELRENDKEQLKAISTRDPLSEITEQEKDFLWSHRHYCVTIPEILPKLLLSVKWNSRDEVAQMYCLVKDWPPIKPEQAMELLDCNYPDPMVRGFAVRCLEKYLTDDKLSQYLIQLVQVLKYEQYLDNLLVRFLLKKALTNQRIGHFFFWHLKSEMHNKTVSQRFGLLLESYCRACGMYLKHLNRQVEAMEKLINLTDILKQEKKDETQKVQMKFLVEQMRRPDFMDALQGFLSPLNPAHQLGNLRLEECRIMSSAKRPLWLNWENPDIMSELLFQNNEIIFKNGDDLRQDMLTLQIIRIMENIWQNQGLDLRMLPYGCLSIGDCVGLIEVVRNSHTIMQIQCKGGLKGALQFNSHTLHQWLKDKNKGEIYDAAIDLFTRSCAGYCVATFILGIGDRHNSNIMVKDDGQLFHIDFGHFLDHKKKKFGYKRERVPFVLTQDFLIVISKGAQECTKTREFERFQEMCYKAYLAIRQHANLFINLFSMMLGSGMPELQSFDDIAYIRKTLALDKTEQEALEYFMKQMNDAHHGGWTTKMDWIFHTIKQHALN
Description: Inhibition of human N-terminal poly-His tagged-PI3Kalpha expressed in Sf9 baculovirus system co-expressing p85alpha after 20 mins by AlphaScreen assay
The target of data set [12] is Serine/threonine-protein kinase mTOR (Homo sapiens, UniProt P42345).
Description: Inhibition of recombinant GST-tagged mTOR-mediated 4EBP1 phosphorylation after 90 mins by FRET assay

Some results are limits rather than exact numbers.

Chain of Phosphatidylinositol 4,5-bisphosphate 3-kinase catalytic subunit beta isoform (P42338 whole entry, canonical isoform): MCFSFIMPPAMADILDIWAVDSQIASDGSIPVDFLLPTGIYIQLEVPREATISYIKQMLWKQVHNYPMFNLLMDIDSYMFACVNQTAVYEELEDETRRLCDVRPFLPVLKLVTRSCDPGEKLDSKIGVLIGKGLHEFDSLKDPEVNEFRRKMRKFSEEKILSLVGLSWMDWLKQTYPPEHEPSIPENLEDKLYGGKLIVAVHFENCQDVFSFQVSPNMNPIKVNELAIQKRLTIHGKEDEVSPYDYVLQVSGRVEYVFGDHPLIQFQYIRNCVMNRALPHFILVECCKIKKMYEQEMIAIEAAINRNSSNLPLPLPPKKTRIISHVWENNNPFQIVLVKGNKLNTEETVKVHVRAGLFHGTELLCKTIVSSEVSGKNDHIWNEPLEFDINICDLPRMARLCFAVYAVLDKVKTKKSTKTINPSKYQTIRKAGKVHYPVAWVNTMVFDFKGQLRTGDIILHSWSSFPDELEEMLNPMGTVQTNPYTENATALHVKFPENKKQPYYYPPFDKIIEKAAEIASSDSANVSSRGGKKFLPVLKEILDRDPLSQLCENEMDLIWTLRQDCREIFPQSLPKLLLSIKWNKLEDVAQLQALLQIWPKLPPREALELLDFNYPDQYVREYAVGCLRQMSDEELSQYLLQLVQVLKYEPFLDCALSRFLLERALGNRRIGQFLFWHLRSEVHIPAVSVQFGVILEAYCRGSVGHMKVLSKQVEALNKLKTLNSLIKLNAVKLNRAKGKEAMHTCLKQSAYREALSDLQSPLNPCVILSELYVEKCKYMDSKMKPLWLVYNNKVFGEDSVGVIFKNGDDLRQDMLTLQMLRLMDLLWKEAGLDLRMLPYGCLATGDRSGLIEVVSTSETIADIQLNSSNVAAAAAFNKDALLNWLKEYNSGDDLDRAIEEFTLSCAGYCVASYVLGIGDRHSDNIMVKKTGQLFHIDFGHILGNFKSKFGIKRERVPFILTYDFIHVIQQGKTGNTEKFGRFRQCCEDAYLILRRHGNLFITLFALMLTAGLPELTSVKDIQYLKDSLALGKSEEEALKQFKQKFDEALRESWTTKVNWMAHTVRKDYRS
Description for in vitro: Intrinsic clearance in rat liver microsomes

In “in vivo [1]”, `COc1ccc(Nc2ncc(Cc3ccc(S(C)(=O)=O)cc3)cc2-c2nc(C)nc(N)n2)cn1` gave an MRT of 1.2 h. In “in vivo [2]”, this molecule showed a Vd of 2.1 L/kg. For the same molecule, in the data set “in vivo [3]”, the clearance is 30 mL/min/kg. Besides, the intrinsic metabolic clearance (microsomal CLint) in “in vitro” was 59 µL/min/mg. For the same molecule, the AUC in “in vivo [4]” worked out at 0.04 µM·h. Besides, the Ki in data set [5] amounted to 7 nM; in data set [6], 1 nM. The same molecule displayed a bioavailability in data set [7] of 2%.

Molecule `Cc1nc(N)nc(-c2cccnc2Nc2cccc3[nH]ncc23)n1` registered a microsomal CLint in the data set “in vitro” of 65 µL/min/mg. Also, the results for the IC50 in data set [8], in data set [10] and in data set [12] were greater than 9000 nM, greater than 1000 nM and greater than 10000 nM, respectively. In addition, the Ki came to 88 nM in [5], 130 nM in data set [6], 51 nM in data set [9] and 92 nM in data set [11].

For `COc1ccc(Nc2ncc(CC3CCN(S(C)(=O)=O)CC3)cc2-c2nc(C)nc(N)n2)cn1`, the MRT in “in vivo [1]” was determined as 1 h. Moreover, the Vd in the data set “in vivo [2]” came out at 2.7 L/kg. The same molecule showed a clearance in “in vivo [3]” of 46.7 mL/min/kg. In addition, the microsomal CLint in the data set “in vitro” came to 111 µL/min/mg. The AUC in “in vivo [4]” came out at 0.04 µM·h. Further, the values for the Ki in data set [5], in [6] and in data set [9] were 8 nM, 4 nM and 15 nM, respectively. Besides, the bioavailability in data set [7] was determined as 3%.

As for `Cc1nc(-c2cccnc2Nc2cccc3n[nH]cc23)c2c[nH]nc2n1`, the microsomal CLint in the data set “in vitro” is 56 µL/min/mg. Further, the Ki came out at 450 nM in data set [5], 5000 nM in data set [6], 2300 nM in data set [9] and 1700 nM in data set [11]. The IC50 in data set [10] was greater than 1000 nM; in [12], greater than 10000 nM.

Consider `COc1ccc(Nc2ncc(CN3CCC(S(C)(=O)=O)CC3)cc2-c2nc(C)nc(N)n2)cn1`, for which the MRT in “in vivo [1]” came out at 1.3 h. In addition, the Vd in “in vivo [2]” came out at 2.9 L/kg. For the same molecule, the clearance in “in vivo [3]” was 41.7 mL/min/kg. For the same molecule, the microsomal CLint in the data set “in vitro” was determined as 20 µL/min/mg. The molecule further registered an AUC in “in vivo [4]” of 0.33 µM·h. The Ki in [5] turned out to be 9 nM; in data set [6] it was 3 nM; in data set [9] it was 5 nM. In data set [7], this molecule displayed a bioavailability of 18%.

`Cc1nc(N)nc(-c2cccnc2Nc2cccc3[nH]ccc23)n1` displayed a microsomal CLint in “in vitro” of 110 µL/min/mg. Further, the IC50 in data set [8] was greater than 9000 nM; in [10], greater than 1000 nM. Besides, the Ki in data set [5] stood at 45 nM; in data set [6], 25 nM; in data set [9], 9 nM.

As to `Cc1nc(N)c(F)c(-c2cccnc2Nc2cccc3[nH]ncc23)n1`, the microsomal CLint in the data set “in vitro” is 71 µL/min/mg. In addition, the Ki is 330 nM in data set [5], 810 nM in [6], 990 nM in data set [9] and 930 nM in data set [11]. Moreover, the IC50 in [10] was greater than 1000 nM; in [12], greater than 10000 nM.

As for `Cc1cc(-c2cccnc2Nc2cccc(O)c2)nc(N)n1`, in the data set “in vitro”, the microsomal CLint came to 118 µL/min/mg. Besides, the Ki is 2600 nM in data set [5], 6000 nM in [6], greater than 10000 nM in data set [9] and 4900 nM in data set [11]. The results for the IC50 in data set [10] and in data set [12] were greater than 1000 nM and greater than 10000 nM, respectively.

In “in vitro”, `Nc1cc(-c2cccnc2Nc2cccc3[nH]ncc23)nc(C(F)(F)F)n1` registered a microsomal CLint of 76 µL/min/mg. Besides, the Ki in data set [5] was 3600 nM; in data set [6], greater than 10000 nM; in [9], 1300 nM; in data set [11], 3200 nM. Moreover, the results for the IC50 in [10] and in data set [12] were greater than 1000 nM and greater than 10000 nM, respectively.

One may read the MRT as a mean duration of stay, worked out from the concentration-time curve. What is called Vd is a proportionality between amount in the body and measured concentration, not a real space. What is called clearance is the volume of plasma or blood freed of the substance per unit of time. High values mean efficient removal, low ones inefficient removal. A word on the microsomal CLint: it is a measure of how fast metabolising enzymes remove a compound, apart from limits set by blood flow. A lower microsomal CLint goes with slow turnover. As a reminder, the AUC is the area under the concentration-time curve, a measure of exposure. A higher AUC goes with high exposure. For orientation: Ki means a dissociation constant, usually derived from enzyme kinetics or from competition with a known ligand. Low values mean higher affinity, high ones lower affinity. One may read the bioavailability as dose-corrected exposure relative to a reference, in per cent. For orientation: IC50 means the concentration needed to halve the response being measured. Read a low IC50 as greater potency.

Source of the values: ChEMBL document CHEMBL2163268, “Structure-based design of a novel series of potent, selective inhibitors of the class I phosphatidylinositol 3-kinases” (J Med Chem, 2012).
